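These data come from cells grown in 96-well plates and exposed to compound for 48 hours at five concentrations. Definition used: TGI = concentration required for complete inhibition of growth.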

The first assay deals with MALME-3M melanoma. The assay is described as follows: NCI tumour cell line growth inhibition, 48 h.
As to `COc1ccc(C2c3cc4c(cc3C(O)C3CCC(=O)N23)OCO4)cc1` (stereo not given), the TGI is > 100 µM.
On the same count and under the same terms, with `CC1(C)C(=O)N(O)C(C)(C)N1O` the figure was > 10 µM; with `CCOC(=O)/C(O)=C(/C=N\C(=S)Nc1ccccc1Cl)C(=O)OCC`, > 100 µM; with `CCOC(=O)CCC(NC(=O)Cc1ccc(Nc2nc3ccccc3nc2-c2ccccc2)cc1)C(=O)OCC` (stereo not given), > 100 µM.
The same measure, in the same setting: with `Cc1nc2sc(CCl)nn2c(=O)c1Cl` the figure was 24.9 µM.
Same read-out and setting: the value for `COc1ccc(/C=C(\Cl)c2ccc(OC)c(OC)c2)cc1OC` was > 100 µM; that for `CCOC(=O)c1ccc(C(=O)OCC)n1-c1cc2cc(c1)CSCc1cc(cc(-n3c(C(=O)OCC)ccc3C(=O)OCC)c1)CSC2` was > 10 µM; that for `Cc1ccc(NCC2CC/C(=C\c3ccc(Cl)cc3)C2=O)cc1` (stereo not given) was 38 µM.
On to `COc1cc(OCc2ccc3nc(-c4ccccc4)c(N)nc3c2)cc(OC)c1OC`, for which the TGI was determined as 32.4 µM.
The same measure, in the same setting: with `O=S1(=O)c2cnccc2NC(=NCc2cccc3ccccc23)N1c1ccccc1` the figure was > 100 µM.
On the same count and under the same terms, the value for `Cc1occc1C(=S)Nc1ccc(Cl)c(C(=O)OCC(F)(F)F)c1` was 73.7 µM.

In another assay the test system is ACHN renal. The assay is described as follows: NCI tumour cell line growth inhibition, 48 h.
On to `COc1ccc(C2c3cc4c(cc3C(O)C3CCC(=O)N23)OCO4)cc1` (stereo not given), for which the TGI was > 100 µM.
Same read-out and setting: with `CC1(C)C(=O)N(O)C(C)(C)N1O` the figure was > 10 µM; with `CCOC(=O)/C(O)=C(/C=N\C(=S)Nc1ccccc1Cl)C(=O)OCC`, > 100 µM.
Same read-out and setting: the value for `CCOC(=O)CCC(NC(=O)Cc1ccc(Nc2nc3ccccc3nc2-c2ccccc2)cc1)C(=O)OCC` (stereo not given) was > 100 µM; that for `Cc1nc2sc(CCl)nn2c(=O)c1Cl` was 29.3 µM; that for `COc1ccc(/C=C(\Cl)c2ccc(OC)c(OC)c2)cc1OC` was > 100 µM.
On the same count and under the same terms, the value for `CCOC(=O)c1ccc(C(=O)OCC)n1-c1cc2cc(c1)CSCc1cc(cc(-n3c(C(=O)OCC)ccc3C(=O)OCC)c1)CSC2` was > 10 µM; that for `Cc1ccc(NCC2CC/C(=C\c3ccc(Cl)cc3)C2=O)cc1` (stereo not given) was > 71.5 µM; that for `COc1cc(OCc2ccc3nc(-c4ccccc4)c(N)nc3c2)cc(OC)c1OC` was 63.8 µM.
On to `O=S1(=O)c2cnccc2NC(=NCc2cccc3ccccc23)N1c1ccccc1`, for which the TGI is > 100 µM.
In turn, `Cc1occc1C(=S)Nc1ccc(Cl)c(C(=O)OCC(F)(F)F)c1` yielded a TGI of 54.1 µM.

The subject of a further assay is LOX IMVI melanoma. The assay is described as follows: NCI tumour cell line growth inhibition, 48 h.
For the molecule `COc1ccc(C2c3cc4c(cc3C(O)C3CCC(=O)N23)OCO4)cc1` (stereo not given), the TGI was > 100 µM.
The same measure, in the same setting: the value for `CC1(C)C(=O)N(O)C(C)(C)N1O` was > 10 µM.
On to `CCOC(=O)/C(O)=C(/C=N\C(=S)Nc1ccccc1Cl)C(=O)OCC`, for which the TGI is > 100 µM.
For the molecule `CCOC(=O)CCC(NC(=O)Cc1ccc(Nc2nc3ccccc3nc2-c2ccccc2)cc1)C(=O)OCC` (stereo not given), the TGI is > 100 µM.
Same read-out and setting: the value for `Cc1nc2sc(CCl)nn2c(=O)c1Cl` was 7.34 µM.
Same read-out and setting: with `COc1ccc(/C=C(\Cl)c2ccc(OC)c(OC)c2)cc1OC` the figure was > 100 µM; with `CCOC(=O)c1ccc(C(=O)OCC)n1-c1cc2cc(c1)CSCc1cc(cc(-n3c(C(=O)OCC)ccc3C(=O)OCC)c1)CSC2`, > 10 µM; with `Cc1ccc(NCC2CC/C(=C\c3ccc(Cl)cc3)C2=O)cc1` (stereo not given), 19 µM.
Molecule `COc1cc(OCc2ccc3nc(-c4ccccc4)c(N)nc3c2)cc(OC)c1OC` displayed a TGI of 29.7 µM.
Still for that read-out and setting: with `O=S1(=O)c2cnccc2NC(=NCc2cccc3ccccc23)N1c1ccccc1` the figure was > 100 µM; with `Cc1occc1C(=S)Nc1ccc(Cl)c(C(=O)OCC(F)(F)F)c1`, 34.7 µM.

The test system of the next assay is NCI-H460 lung. The experiment in a line: NCI tumour cell line growth inhibition, 48 h.
Regarding `COc1ccc(C2c3cc4c(cc3C(O)C3CCC(=O)N23)OCO4)cc1` (stereo not given), the TGI is > 100 µM.
On the same count and under the same terms, the value for `CC1(C)C(=O)N(O)C(C)(C)N1O` was > 10 µM.
In the case of `CCOC(=O)/C(O)=C(/C=N\C(=S)Nc1ccccc1Cl)C(=O)OCC`, the TGI is > 100 µM.
Take `CCOC(=O)CCC(NC(=O)Cc1ccc(Nc2nc3ccccc3nc2-c2ccccc2)cc1)C(=O)OCC` (stereo not given): the TGI was > 100 µM.
Same read-out and setting: the value for `Cc1nc2sc(CCl)nn2c(=O)c1Cl` was 25.3 µM; that for `COc1ccc(/C=C(\Cl)c2ccc(OC)c(OC)c2)cc1OC` was > 100 µM; that for `CCOC(=O)c1ccc(C(=O)OCC)n1-c1cc2cc(c1)CSCc1cc(cc(-n3c(C(=O)OCC)ccc3C(=O)OCC)c1)CSC2` was > 10 µM.
The same measure, in the same setting: the value for `Cc1ccc(NCC2CC/C(=C\c3ccc(Cl)cc3)C2=O)cc1` (stereo not given) was > 62.4 µM; that for `COc1cc(OCc2ccc3nc(-c4ccccc4)c(N)nc3c2)cc(OC)c1OC` was 39.7 µM.
Still for that read-out and setting: the value for `O=S1(=O)c2cnccc2NC(=NCc2cccc3ccccc23)N1c1ccccc1` was > 100 µM; that for `Cc1occc1C(=S)Nc1ccc(Cl)c(C(=O)OCC(F)(F)F)c1` was 48.1 µM.

In another assay the test system is U251 CNS. The assay is described as follows: NCI tumour cell line growth inhibition, 48 h.
Consider `COc1ccc(C2c3cc4c(cc3C(O)C3CCC(=O)N23)OCO4)cc1` (stereo not given), for which the TGI is > 100 µM.
Same read-out and setting: with `CC1(C)C(=O)N(O)C(C)(C)N1O` the figure was > 10 µM.
On to `CCOC(=O)/C(O)=C(/C=N\C(=S)Nc1ccccc1Cl)C(=O)OCC`, for which the TGI is > 100 µM.
Take `CCOC(=O)CCC(NC(=O)Cc1ccc(Nc2nc3ccccc3nc2-c2ccccc2)cc1)C(=O)OCC` (stereo not given): the TGI was 78.1 µM.
Regarding `Cc1nc2sc(CCl)nn2c(=O)c1Cl`, the TGI worked out at 19.2 µM.
Still for that read-out and setting: the value for `COc1ccc(/C=C(\Cl)c2ccc(OC)c(OC)c2)cc1OC` was > 100 µM; that for `CCOC(=O)c1ccc(C(=O)OCC)n1-c1cc2cc(c1)CSCc1cc(cc(-n3c(C(=O)OCC)ccc3C(=O)OCC)c1)CSC2` was > 10 µM.
The same measure, in the same setting: the value for `Cc1ccc(NCC2CC/C(=C\c3ccc(Cl)cc3)C2=O)cc1` (stereo not given) was 34 µM; that for `COc1cc(OCc2ccc3nc(-c4ccccc4)c(N)nc3c2)cc(OC)c1OC` was > 100 µM; that for `O=S1(=O)c2cnccc2NC(=NCc2cccc3ccccc23)N1c1ccccc1` was > 100 µM.
`Cc1occc1C(=S)Nc1ccc(Cl)c(C(=O)OCC(F)(F)F)c1` displayed a TGI of 39.3 µM.

The values above are taken from PubChem BioAssay (NCI).
